Reference: patent US20250197356A1, “METHOD FOR SYNTHESIZING NUCIFERINE OR DERIVATIVE THEREOF, DERIVATIVE OF NUCIFERINE AND USE THEREOF” (HUAQIAO UNIVERSITY, priority 2022, published 2025)
Read-outs that look alike come from different tables or passages of the source.

What was measured:
[1] = cited from earlier work
hyperlipidemia rats [2] = assay: Liver and kidney indexes in high-fat diet hyperlipidemia rats; format: in vivo, SD rats; conditions: 20 mg/(kg d) by gastric gavage, 4 weeks, x ± s, n = 9
Text: (§1) Animals: 54 SPF-grade SD rats, weighing 120±10 g, provided by Laboratory Animal Business Department, Shanghai Family Planning Research Institute, China, Animal license number: SCXK(Shanghai)2018-0006.
(§2) Modeling scheme: 54 adult rats of 120±10 g were selected and fed adaptively for three days. They were then randomly divided to 6 groups, 9 animals for each group. They were blank control group, model group, positive control group, nuciferine group, and nuciferine structural modification group. The blank control group was fed with normal diet. […] The feeding and modeling time was 5 weeks.
(§3) Liver tissue sample collection: the rats were killed by dislocation, and the liver was taken out immediately after death, which was observed by naked eye to find out whether there was abnormal color and lesions, and was then rinsed with ice normal saline. The left lobe of the liver was quickly cut into small pieces and fixed in 10% formaldehyde overnight for sectioning. The tissue of the right lobe of the liver was quickly wrapped in tin box and stored at −80° C. for later use.

hyperlipidemia rats [3] = assay: Serum biochemical indicators in high-fat diet hyperlipidemia rats; format: in vivo, SD rats; conditions: serum, 20 mg/(kg d) by gastric gavage, 4 weeks; for ALT (U/L) / AST (U/L) / Bun / Cr: x ± s, n = 9
Text: as §1
(§4) Drug to be tested: Nuciferine purchased from Shanghai Aladdin Biochemical Technology Co., Ltd., China, and its derivatives (purity >99%) that were synthesized in the laboratory by the methods of Examples 2-7.
(§5) Other reagents: AST, ALT, TC, TG, NEFA, Bun, Cr, CAT, GSH-Px, GSH, MDA test kits, purchased from Nanjing Jiancheng Bioengineering Institute, China; HL and PL test kits, purchased from Jianglai Biotechnology Co., Ltd., China; experimental reagents such as anhydrous ethanol, xylene, isopropanol neutral gum, purchased from Sinopharm Chemical Reagent Co., Ltd., China; HE dye solution, DAB color development agent, and oil red O dye solution, purchased from KeyGEN Biotechnology Co., Ltd, China; Antibodies IL-6 and TNF-α, purchased from Abcam Limited.
as §2, with “weeks. Within 4 weeks after modeling, continuous administration was performed: the blank control group and model group were given 0.2 mL of distilled water by gastric gavage; the positive control group was administrated 20 mg/(kg d) of simvastatin; while the treatment group was administrated 20 mg/(kg d) of nuciferine or 20 mg/(kg d) of a derivative of nuciferine (compounds 6a-6f).” for “weeks.”
Blood sample collection: 24 h after the last gastric gavage administration, eyeballs were taken out and blood was drawn. Whole blood was collected in an EP tube, and centrifuged at 3000 r/min and 4° C. for 10 min, and the supernatant was collected and stored at −20° C. for blood biochemical indicator test.
(§6) Biochemical indicator determination: indicators AST, ALT, TC, TG, NEFA, Bun, Cr, CAT, GSH-Px, GSH, MDA, HL, PL were determined according to the instructions of the kits.

hyperlipidemia rats [4] = assay: Liver tissue homogenate biochemical indicators in high-fat diet hyperlipidemia rats; format: in vivo, SD rats; conditions: liver tissue, 20 mg/(kg d) by gastric gavage, 4 weeks, x ± s, n = 9
Text: as §1, §4, §5
as §2, with “weeks. Within 4 weeks after modeling, continuous administration was performed: the blank control group and model group were given 0.2 mL of distilled water by gastric gavage; the positive control group was administrated 20 mg/(kg d) of simvastatin; while the treatment group was administrated 20 mg/(kg d) of nuciferine or 20 mg/(kg d) of a derivative of nuciferine (compounds 6a-6f).” for “weeks.”
as §3
Preparation of 10% liver homogenate: the liver wrapped in tin box and stored in the ultra-low temperature freezer at −80° C. was taken out, and quickly placed on an ice box. 0.2 g of liver tissue was accurately taken, and ice normal saline with a volume 9 times that of the liver issue was added thereto. 10% tissue homogenate was formed by grounding and mixing, and then centrifuged at 3000 r/min and 4° C. for 10 min. The supernatant was collected for later use.
as §6

hyperlipidemia rats [5] = assay: Liver appearance and HE histopathological observation in hyperlipidemia rats; format: in vivo, SD rats; conditions: compared with the model group, 20 mg/(kg d)
Text: as §1, §2, §3

[6] = TCMSP database, screening threshold OB ≥30%

## Oc1cc(O)c2c(c1)O[C@@H](c1ccc(O)c(O)c1)[C@@H](O)C2 [ent-Epicatechin]
[1]; po
  OB/% (oral bioavailability): 48.96%

## COc1ccc(C(=O)N2CCc3cc(OC)c(OC)c4c3C2Cc2ccccc2-4)cc1 (stereo not drawn) [Compound 6e, p-Methoxybenzoylnuciferine]
Hyperlipidemia rats [2]
  Kidney index (%): 0.68 ± 0.05 %
  Liver index (%): 4.58 ± 0.27 %
Hyperlipidemia rats [3]
  LDL-C: 0.56 ± 0.08 mmol/L
  TC: 1.95 ± 0.13 mmol/L
  TG: 0.55 ± 0.05 mmol/L
  ALT (U/L): 15.54 ± 8.69 U/L
  AST (U/L): 7.65 ± 2.26 U/L
  Bun: 3.43 ± 0.27 mmol/L
  Cr: 52.90 ± 2.21 µmol/L
Hyperlipidemia rats [4]
  CAT (U/mgprot): 26.34 ± 4.54 U/mgprot
  GSH (μmol/gprot): 363.09 ± 71.72 μmol/gprot
  GSH-Px (U/mgprot): 537.18 ± 34.93 U/mgprot
  HL (U/mgprot): 0.37 ± 0.07 U/mgprot
  LPL (U/mgprot): 0.28 ± 0.04 U/mgprot
  MDA (nmol/mgprot): 1.02 ± 0.73 nmol/mgprot
  NEFA (μmol/g prot): 107.69 ± 6.44 μmol/g prot
  TG (mmol/g prot): 0.10 ± 0.02 mmol/g prot

## COc1cc2c3c(c1OC)-c1ccccc1CC3N(C(=O)c1ccc(F)cc1)CC2 (stereo not drawn) [Compound 6b, p-Fluorobenzoylnuciferine]
Hyperlipidemia rats [2]
  Kidney index (%): 0.68 ± 0.02 %
  Liver index (%): 4.58 ± 0.23 %
Hyperlipidemia rats [3]
  LDL-C: 0.68 ± 0.16 mmol/L
  TC: 2.01 ± 0.14 mmol/L
  TG: 0.57 ± 0.08 mmol/L
  ALT (U/L): 16.43 ± 9.51 U/L
  AST (U/L): 7.91 ± 2.21 U/L
  Bun: 3.48 ± 0.24 mmol/L
  Cr: 53.90 ± 1.81 µmol/L
Hyperlipidemia rats [4]
  CAT (U/mgprot): 25.90 ± 4.29 U/mgprot
  GSH (μmol/gprot): 365.04 ± 71.78 μmol/gprot
  GSH-Px (U/mgprot): 532.14 ± 30.92 U/mgprot
  HL (U/mgprot): 0.51 ± 0.05 U/mgprot
  LPL (U/mgprot): 0.29 ± 0.10 U/mgprot
  MDA (nmol/mgprot): 1.03 ± 0.33 nmol/mgprot
  NEFA (μmol/g prot): 106.32 ± 22.95 μmol/g prot
  TG (mmol/g prot): 0.13 ± 0.02 mmol/g prot
Hyperlipidemia rats [5]
  Liver appearance (photographs, FIG. 8): more brittle

## COc1cc(-c2oc3cc(O)cc(O)c3c(=O)c2O)ccc1O [isorhamnetin]
[1]; [6]
  OB/% (oral bioavailability): 49.6%

## Oc1cc(O)c2c(c1)OC(c1ccc(O)c(O)c1)C(O)C2O (single isomer, unassigned; (+)) [(+)-Leucocyanidin]
[1]; [6]
  OB/% (oral bioavailability): 37.61%

## CC(C)=CCC[C@@H](C)[C@H]1CC[C@@]2(C)[C@@H]3CC[C@H]4C(C)(C)[C@@H](O)CC[C@@]45C[C@@]35CC[C@]12C [Cycloartenol]
[1]; [6]
  OB/% (oral bioavailability): 38.69%

## CCC(C)(C)C(=O)O[C@H]1C[C@@H](C)C=C2C=C[C@H](C)[C@H](CC[C@@H]3C[C@@H](O)CC(=O)O3)[C@H]21 [Simvastatin, simvastatin, reference compound]
Hyperlipidemia rats [2]
  Kidney index (%): 0.68 ± 0.03 %
  Liver index (%): 4.47 ± 0.36 %
Hyperlipidemia rats [3]
  LDL-C: 0.62 ± 0.17 mmol/L
  TC: 2.00 ± 0.19 mmol/L
  TG: 0.47 ± 0.05 mmol/L
  ALT (U/L): 13.74 ± 4.06 U/L
  AST (U/L): 7.57 ± 1.78 U/L
  Bun: 3.98 ± 0.43 mmol/L
  Cr: 53.79 ± 7.58 µmol/L
Hyperlipidemia rats [4]
  CAT (U/mgprot): 29.35 ± 7.00 U/mgprot
  GSH (μmol/gprot): 341.36 ± 98.66 μmol/gprot
  GSH-Px (U/mgprot): 708.02 ± 47.00 U/mgprot
  HL (U/mgprot): 0.45 ± 0.11 U/mgprot
  LPL (U/mgprot): 0.50 ± 0.06 U/mgprot
  MDA (nmol/mgprot): 0.84 ± 0.19 nmol/mgprot
  NEFA (μmol/g prot): 103.22 ± 8.89 μmol/g prot
  TG (mmol/g prot): 0.09 ± 0.01 mmol/g prot

## o-Nornuciferine
[1]; [6]
  OB/% (oral bioavailability): 33.52%
